Test results published in patent US11858879B2, “PARG inhibitors and method of use thereof” (City of Hope, priority 2017, dated 2024).

Biological target: T1, PARG (Homo sapiens, UniProt Q86W56)
T1 construct: Recombinant full length PARG protein is generated from Sf9 insect cells; made in house; host or cells: Sf9 insect cells
Test: PAR digestion assay (dot blotting with anti-PAR antibody)
Format: biochemical
Settings: PARG incubated with PAR for 20 min at room temperature with or without inhibitors, dot blot with anti-PAR antibody
Procedure: Development of potent and cell-permeant PARG inhibitors via multi-step virtual screening and hierarchical selection. Forty candidates from National Cancer Institute (NCI) were selected to examine the efficacy of PARG inhibition by dot blot assay. PARG was incubated with PAR for 20 min at room temperature with or without inhibitors. PAR-digestion results were analyzed using dot blotting with anti-PAR antibody. […] PC and NC mean positive control (PAR only) and negative control (no inhibitor), respectively. IC50 value of compound 34 was measured by dot blotting with anti-PAR antibody in a dose course of compound 34.
PAR digestion assay: Recombinant PARG protein were incubated with PAR (10 μM, calculated as the ADP-ribose unit) and DMSO (Negative control, NC) or small molecules for 20 minutes at room temperature. Positive control (PC) only contains PAR in PBS. Samples were spotted onto a nitrocellulose membrane. The membrane was blocked with TBST buffer (0.15 M NaCl, 0.01 M Tris-HCl at pH 7.4, 0.1% Tween 20) supplemented with 5% milk and extensively washed with TBST. The membrane was examined by anti-PAR antibody.
Recombinant full length PARG protein is generated from Sf9 insect cells. Recombinant PAR is purified from a biochemical assay using PARP1. PARG is incubated with PAR in the presence of DMSO (Negative control, NC) or small chemical compounds for 20 minutes at room temperature. […]

T1 sequence (Q86W56 whole entry): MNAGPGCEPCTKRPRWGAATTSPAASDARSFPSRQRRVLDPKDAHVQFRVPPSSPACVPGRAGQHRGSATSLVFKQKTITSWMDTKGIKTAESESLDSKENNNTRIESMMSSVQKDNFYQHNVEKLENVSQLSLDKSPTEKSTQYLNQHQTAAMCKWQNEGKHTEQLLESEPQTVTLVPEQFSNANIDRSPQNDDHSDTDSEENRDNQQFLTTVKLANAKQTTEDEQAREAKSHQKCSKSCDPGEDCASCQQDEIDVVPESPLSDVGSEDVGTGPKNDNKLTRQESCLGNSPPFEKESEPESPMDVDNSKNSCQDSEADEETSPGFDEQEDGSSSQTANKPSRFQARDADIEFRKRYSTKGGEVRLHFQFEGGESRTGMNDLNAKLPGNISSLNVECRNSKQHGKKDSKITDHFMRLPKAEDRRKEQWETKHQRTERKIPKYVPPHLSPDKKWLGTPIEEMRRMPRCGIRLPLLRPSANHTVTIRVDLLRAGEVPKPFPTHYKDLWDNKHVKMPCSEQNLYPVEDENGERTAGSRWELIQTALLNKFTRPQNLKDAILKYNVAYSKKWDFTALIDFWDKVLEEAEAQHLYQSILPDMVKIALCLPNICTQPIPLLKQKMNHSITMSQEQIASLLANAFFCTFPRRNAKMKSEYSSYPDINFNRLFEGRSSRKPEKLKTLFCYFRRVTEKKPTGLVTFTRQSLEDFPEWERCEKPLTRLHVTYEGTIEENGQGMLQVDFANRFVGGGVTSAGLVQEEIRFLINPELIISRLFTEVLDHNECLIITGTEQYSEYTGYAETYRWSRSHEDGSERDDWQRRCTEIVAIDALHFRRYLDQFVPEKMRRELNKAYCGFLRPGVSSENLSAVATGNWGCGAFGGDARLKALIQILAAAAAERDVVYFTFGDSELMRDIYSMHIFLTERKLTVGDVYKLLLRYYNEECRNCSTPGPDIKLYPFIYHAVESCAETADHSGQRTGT

## Cc1ccc(S/N=C/c2c(O)ccc3ccccc23)cc1 [Compound 34]
  inhibitory activity for PARG: inhibitory activity
Listed as #34
  inhibitory activity for PARG: good inhibitory activity
